In patent US20260132128A1, “COMPOUND FOR RECOVERING P53 MUTATION FUNCTION AND USE THEREOF” (SHENZHEN ZHONGGE BIOLOGICAL TECHNOLOGY CO., LTD., priority 2022, published 2026):
Marks after values point to notes of the source that are not given here.

Tests used:
[1] = biological target: T1, p53 Y220C (Homo sapiens, UniProt P04637, Y220C); experiment: DNA binding test (HTRF): binding of P53Y220C protein to DNA; assay type: biochemical; conditions: multiple ratio of EC50 of the compound to the reference compound, DNA binding test
T1 construct: a truncated mutant containing only amino acids 94-312 of p53; made in house; host or cells: E. coli
Description: (§1) In order to detect the ability of the aforementioned compounds to increase the binding of P53Y220C protein to DNA, the binding activity of p53 Y220C was measured by homogeneous time-resolved fluorescence (HTRF). Recombinant His-tagged p53 Y220C for HTRF measurement was expressed in bacteria E. coli. The recombinant protein was a truncated mutant containing only amino acids 94-312 of p53, and its sequence was […] […] VEGNLR […] TFRh[…] […]. The sense strand of the DNA double strand was 5′-[…]-3′, with a biotin tag at the 5′ end for activity assay, and the antisense strand was 5′-[…]-3′ 40 mL of assay buffer (20 mM Tris HCL, pH 7.5, 50 mM NaCl, 2 mM MgCl2, 0.02% Tween 20, 0.01% BSA, 1 mM DTT) was prepared. 10 mM compound was prepared and subjected to 3-fold dilution to obtain 10 dose gradient dilutions of the compound. 20 nL of the compound was added to a 384-well assay plate (PerkinElmer 6007299) using an Echo 655 Liquid Handler. P53Y220C protein was dissolved in assay buffer to reach a final concentration of 150 nM, and 5 μL thereof was added to each well, and incubated at room temperature for 5 min. DNA was dissolved in assay buffer to reach a final concentration of 150 nM, and 5 μL thereof was added to each well, and incubated at room temperature for 15 min. Anti 6HIS-XL665 (Cisbio 61HISXLB) was dissolved in assay buffer to reach a final concentration of 20 nM, and 5 μL thereof was added to each well. Streptavidin-Eu cryptate (Cisbio 610SAKLA) was dissolved in assay buffer to reach a final concentration of 0.625 nM, and 5 μL thereof was added to each well, and incubated at 27° C. for 1 hour. The plate was then read for signal values on an Envision (PerkinElmer 2105-0020) plate reader at 665 nm and 615 nm, respectively. […] Activation rate={(A-C)/(C)}*100%, A=(signal value at 665 nm/signal value at 615 nm); C=average signal of negative control (wherein, negative control referred to 0.1% DMSO).

[2] = biological target: T2, p53 Y220C (Homo sapiens, UniProt P04637, P309S/R273H/Y220C); experiment: as above; assay type: biochemical; conditions: HTRF, activation of p53 Y220C (aa 94-312) binding to biotin DNA
T2 construct: a truncated mutant containing only amino acids 94-312 of p53; made in house; host or cells: E. coli
Description: as §1

[3] = system: NUGC-3 cells; experiment: NUGC-3 cell proliferation assay (CTG); assay type: cell-based, human; conditions: for GI50: 6 days, CTG; for Compound GI50 (nM)/Reference compound GI50 (nM): multiple ratio of GI50 of the compound to the reference compound
Description: In order to detect the inhibitory effect of the aforementioned compounds on the proliferation ability of NUGC-3 cells, 250 NUGC-3 cells (Nanjing Cobioer Biosciences Co., Ltd., CBP60492) were seeded into a 384-well plate (Corning 3765), 35 μL per well, and incubated overnight in a constant temperature incubator at 37° C. and 5% CO2. Then, 40 nL of the compound was added to the 384-well plate using an Echo 655 Liquid Handler, with a maximum final concentration of 10 μM, 1:3 serial dilutions, and a total of 10 doses. The culture was performed at 37° C. and 5% CO2 for 6 days. The plate was taken out from the incubator and equilibrated at room temperature for 10 minutes. 20 μL of CTG (Promage G7572) was added to each well of the plate according to the platemap. The plate was centrifuged at 1000 rpm for 1 min. The lysis of cells was induced by mixing on a shaker for 2 min. The plate was centrifuged at 1000 rpm for 1 min. Incubation was performed at room temperature for 10 min to stabilize luminescence signals. Luminescence values were recorded by Envision (PerkinElmer 2105-0020). GraphPad 9.0 was used to fit the inhibition rate and compound concentration into a nonlinear regression curve (dose response-variable slope) to calculate GI50, inhibition rate={1−(A−B)/(C−B)}*100%, A=signal value of compound; B=average signal of blank control; C=average signal of negative control (wherein negative control was 0.1% DMSO).

CNC(=O)c1ccc(NCC#Cc2nc3c(NC4CCC(N5CC6(COC6)C5)CC4F)cccn3c2CC(F)(F)F)c(OC)c1 (single isomer, unassigned) [Compound 35-6e]
Compound EC50 (nM)/Reference compound EC50 (nM) [1]: C (C: EC50 of the compound≥3*EC50 of the reference compound) | EC50 [2]: 0.1 to 0.5 µM | GI50 [3]: ≥ 5 µM | Compound GI50 (nM)/Reference compound GI50 (nM) [3]: C (C: GI50 of the compound ≥ 3 * GI50 of the reference compound)

CNC(=O)c1ccc(NCC#Cc2nc3c(NC4CCC(N5CC6(COC6)C5)CC4F)cccn3c2CC(F)(F)F)c(OC)c1 (single isomer, unassigned) [Compound 35-6f]
Compound EC50 (nM)/Reference compound EC50 (nM) [1]: B (B: EC50 of the reference compound<EC50 of the compound≤3.0*EC50 of the reference compound) | EC50 [2]: < 0.1 µM | GI50 [3]: 1 to 5 µM | Compound GI50 (nM)/Reference compound GI50 (nM) [3]: C (C: GI50 of the compound ≥ 3 * GI50 of the reference compound)

CNC(=O)c1ccc(NCC#Cc2nc3c(NC4CCC(N5CC6(COC6)C5)CC4F)cccn3c2CC(F)(F)F)c(OC)c1 (single isomer, unassigned) [Compound 35-6g]
Compound EC50 (nM)/Reference compound EC50 (nM) [1]: C (C: EC50 of the compound≥3*EC50 of the reference compound) | EC50 [2]: 0.1 to 0.5 µM | GI50 [3]: ≥ 5 µM | Compound GI50 (nM)/Reference compound GI50 (nM) [3]: C (C: GI50 of the compound ≥ 3 * GI50 of the reference compound)

CNC(=O)c1ccc(NCC#Cc2nc3c(NC4CCC(N5CC6(COC6)C5)CC4F)cccn3c2CC(F)(F)F)c(OC)c1 (single isomer, unassigned) [Compound 35-6h]
Compound EC50 (nM)/Reference compound EC50 (nM) [1]: B (B: EC50 of the reference compound<EC50 of the compound≤3.0*EC50 of the reference compound) | EC50 [2]: < 0.1 µM | GI50 [3]: 1 to 5 µM | Compound GI50 (nM)/Reference compound GI50 (nM) [3]: C (C: GI50 of the compound ≥ 3 * GI50 of the reference compound)

CNC(=O)c1ccc(NCC#Cc2nc3c(NC4CCC(N5CC6(COC6)C5)CC4F)cccn3c2CC(F)(F)F)c(OC)c1 (single isomer, unassigned) [Compound 35-6j]
Compound EC50 (nM)/Reference compound EC50 (nM) [1]: C (C: EC50 of the compound≥3*EC50 of the reference compound) | EC50 [2]: < 0.1 µM | GI50 [3]: < 1 µM | Compound GI50 (nM)/Reference compound GI50 (nM) [3]: C (C: GI50 of the compound ≥ 3 * GI50 of the reference compound)

COc1cc(S(=N)(=O)C2CC2)ccc1NCC#Cc1cc2c(NC3CCN(C)CC3F)cccc2n1CC(F)(F)F (single isomer, unassigned) [Compound 39c]
Compound EC50 (nM)/Reference compound EC50 (nM) [1]: B (B: EC50 of the reference compound<EC50 of the compound≤3.0*EC50 of the reference compound) | EC50 [2]: < 0.1 µM | Compound GI50 (nM)/Reference compound GI50 (nM) [3]: A (A: GI50 of the compound ≤ GI50 of the reference compound)

COc1cc(S(=N)(=O)C2CC2)ccc1NCC#Cc1cc2c(NC3CCN(C)CC3F)cccc2n1CC(F)(F)F (single isomer, unassigned) [Compound 39d]
Compound EC50 (nM)/Reference compound EC50 (nM) [1]: A (A: EC50 of the compound≤EC50 of the reference compound) | EC50 [2]: < 0.1 µM | Compound GI50 (nM)/Reference compound GI50 (nM) [3]: A (A: GI50 of the compound ≤ GI50 of the reference compound)

[2H]C([2H])([2H])NC(=O)c1ccc(NCC#Cc2cc3c(NC4CCC(N5CCOCC5)CC4F)cccn3c2CC(F)(F)F)c(OC([2H])([2H])[2H])c1 (single isomer, unassigned) [Compound 73d]
Compound EC50 (nM)/Reference compound EC50 (nM) [1]: B (B: EC50 of the reference compound<EC50 of the compound≤3.0*EC50 of the reference compound) | EC50 [2]: < 0.1 µM | GI50 ([3]; Homo sapiens, NUGC-3, 144 h): < 1 µM | Compound GI50 (nM)/Reference compound GI50 (nM) [3]: A (A: GI50 of the compound ≤ GI50 of the reference compound)

CNC(=O)c1ccc(NCC#Cc2nc3c(NC4CCN(C)CC4)cncn3c2CC(F)(F)F)c(OC)c1 [Compound 2]
Compound EC50 (nM)/Reference compound EC50 (nM) [1]: C (C: EC50 of the compound≥3*EC50 of the reference compound) | EC50 [2]: ≥ 1 µM | Compound GI50 (nM)/Reference compound GI50 (nM) [3]: C (C: GI50 of the compound ≥ 3 * GI50 of the reference compound)

CNC(=O)c1ccc(NCC#Cc2nc3c(NC4CCC(F)(F)CC4)cccn3c2CC(F)(F)F)c(OC)c1 [Compound 6]
Compound EC50 (nM)/Reference compound EC50 (nM) [1]: C (C: EC50 of the compound≥3*EC50 of the reference compound) | EC50 [2]: 0.1 to 0.5 µM | GI50 ([3]; Homo sapiens, NUGC-3, 144 h): ≥ 5 µM | Compound GI50 (nM)/Reference compound GI50 (nM) [3]: C (C: GI50 of the compound ≥ 3 * GI50 of the reference compound)

CNC(=O)c1ccc(NCC#Cc2nc3c(NC4CCN(CC(O)COC)CC4)cccn3c2CC(F)(F)F)c(OC)c1 (stereo not drawn) [Compound 7]
Compound EC50 (nM)/Reference compound EC50 (nM) [1]: C (C: EC50 of the compound≥3*EC50 of the reference compound) | EC50 [2]: 0.1 to 0.5 µM | GI50 ([3]; Homo sapiens, NUGC-3, 144 h): 1 to 5 µM | Compound GI50 (nM)/Reference compound GI50 (nM) [3]: C (C: GI50 of the compound ≥ 3 * GI50 of the reference compound)

COc1cc(C#N)ccc1NCC#Cc1nc2c(NC3CCN(C)CC3)cccn2c1CC(F)(F)F [Compound 11]
Compound EC50 (nM)/Reference compound EC50 (nM) [1]: B (B: EC50 of the reference compound<EC50 of the compound≤3.0*EC50 of the reference compound) | EC50 [2]: 0.1 to 0.5 µM | Compound GI50 (nM)/Reference compound GI50 (nM) [3]: C (C: GI50 of the compound ≥ 3 * GI50 of the reference compound)

COc1cc(S(N)(=O)=O)ccc1NCC#Cc1nc2c(NC3CCN(C)CC3)cccn2c1CC(F)(F)F [Compound 12]
Compound EC50 (nM)/Reference compound EC50 (nM) [1]: B (B: EC50 of the reference compound<EC50 of the compound≤3.0*EC50 of the reference compound) | EC50 [2]: 0.1 to 0.5 µM | GI50 ([3]; Homo sapiens, NUGC-3, 144 h): ≥ 5 µM | Compound GI50 (nM)/Reference compound GI50 (nM) [3]: C (C: GI50 of the compound ≥ 3 * GI50 of the reference compound)

CNC(=O)c1ccc(NCC#Cc2nc3c(NC4CCN(C)CC4)cccn3c2CC(F)(F)F)c(F)c1 [Compound 13]
Compound EC50 (nM)/Reference compound EC50 (nM) [1]: B (B: EC50 of the reference compound<EC50 of the compound≤3.0*EC50 of the reference compound) | EC50 [2]: 0.1 to 0.5 µM | GI50 ([3]; Homo sapiens, NUGC-3, 144 h): 1 to 5 µM | Compound GI50 (nM)/Reference compound GI50 (nM) [3]: C (C: GI50 of the compound ≥ 3 * GI50 of the reference compound)

COc1cc(P(C)(C)=O)ccc1NCC#Cc1nc2c(N[C@@H]3CCN(C)C[C@@H]3F)cccn2c1CC(F)(F)F [Compound 14]
Compound EC50 (nM)/Reference compound EC50 (nM) [1]: B (B: EC50 of the reference compound<EC50 of the compound≤3.0*EC50 of the reference compound) | EC50 [2]: 0.1 to 0.5 µM | GI50 ([3]; Homo sapiens, NUGC-3, 144 h): 1 to 5 µM | Compound GI50 (nM)/Reference compound GI50 (nM) [3]: B (B: GI50 of the reference compound < GI50 of the compound ≤ 3.0 * GI50 of the reference compound)

COc1cc(S(C)(=N)=O)ccc1NCC#Cc1nc2c(NC3CCN(C)CC3)cccn2c1CC(F)(F)F (stereo not drawn) [Compound 15]
Compound EC50 (nM)/Reference compound EC50 (nM) [1]: C (C: EC50 of the compound≥3*EC50 of the reference compound) | EC50 [2]: 0.1 to 0.5 µM | GI50 ([3]; Homo sapiens, NUGC-3, 144 h): < 1 µM | Compound GI50 (nM)/Reference compound GI50 (nM) [3]: C (C: GI50 of the compound ≥ 3 * GI50 of the reference compound)
